Source: the NIST ThermoML archive (doi:10.1021/acs.jced.5b00156)

How the values were obtained:
[1] = 101.33 kPa, Liquid; for viscosity: Concentric cylinders viscometry; for mass density: vibrating tube
[2] = refractive index (Na D-line) (dimensionless); details: 101.33 kPa, Liquid, Standard Abbe refractometry

COC(=O)c1ccccc1C(=O)OC [dimethyl 1,2-benzenedicarboxylate]
Details | mass density, [1] [kg/m3] | refractive index, [2] | viscosity, [1] [mPa·s]
288.15 K | 1196.23 | 1.51708 | 23.53
293.15 K | 1191.54 | 1.51494 | 17.7
298.15 K | 1186.87 | 1.51286 | 13.93
303.15 K | 1182.2 | 1.51083 | 11.15
308.15 K | 1177.55 | 1.50885 | 9.123
313.15 K | 1172.91 | 1.50693 | 7.612
318.15 K | 1168.28 | 1.50507 | 6.453
323.15 K | 1163.65 | 1.50303 | 5.578

COC(=O)CCCCC(=O)OC [dimethyl 1,6-hexanedioate]
Details | mass density, [1] [kg/m3] | refractive index, [2] | viscosity, [1] [mPa·s]
288.15 K | 1066.79 | 1.43082 | 3.778
293.15 K | 1061.92 | 1.42876 | 3.313
298.15 K | 1057.05 | 1.42669 | 2.937
303.15 K | 1052.18 | 1.42463 | 2.629
308.15 K | 1047.3 | 1.42255 | 2.366
313.15 K | 1042.41 | 1.42048 | 2.143
318.15 K | 1037.52 | 1.41835 | 1.953
323.15 K | 1032.62 | 1.41631 | 1.794
